The subject of assay [1] is genotype 1a-H77 subgenomic replicon cell line. In words: microbe, parasite or virus in culture. The conditions noted are these: Hepatitis C virus, 72 h, read-out: EC50 1a. It is filed as cell-based, HCV.
The test system of assay [2] is genotype 1b-Con1 subgenomic replicon cell line. In words: microbe, parasite or virus in culture. It is filed as cell-based, HCV. Particulars: Hepatitis C virus, 72 h, read-out: EC50 1b.

For `COc1c(-c2ccc3c(c2)CC=C3CNS(C)(=O)=O)cc(-n2ccc(=O)[nH]c2=O)cc1-c1cccs1` [IB-L0-2.63], the concentration for a half-maximal effect (EC50) in assay [1] fell in the range of 100 to 1000 nM; in assay [2], 10 to 100 nM.
In the case of `COc1c(-c2ccc3c(c2)CCC3O)cc(-n2ccc(=O)[nH]c2=O)cc1C(C)(C)C` (centres unmarked) [IB-L0-2.36, 1-(3-tert-butyl-5-(1-hydroxy-2,3-dihydro-1H-inden-5-yl)-4-methoxyphenyl)pyrimidine-2,4(1H,3H)-dione], the EC50 in assay [1] is 100 to 1000 nM; in assay [2] it was 10 to 100 nM.
Consider `COc1c(-c2ccc3c(c2)CCC3NS(C)(=O)=O)cc(-n2ccc(=O)[nH]c2=O)cc1C(C)(C)C` (centres unmarked) [IB-L0-2.44, N-(5-(3-tert-butyl-5-(2,4-dioxo-3,4-dihydropyrimidin-1(2H)-yl)-2-methoxyphenyl)-2,3-dihydro-1H-inden-1-yl)methanesulfonamide], for which the EC50 in assay [1] and in assay [2] was > 1000 nM in each case.
On to `COc1c(-c2ccc3c(c2)CCC3(C)CNS(C)(=O)=O)cc(-n2ccc(=O)[nH]c2=O)cc1C(C)(C)C` (centres unmarked) [IB-L0-2.25, N-((5-(3-tert-butyl-5-(2,4-dioxo-3,4-dihydropyrimidin-1(2H)-yl)-2-methoxyphenyl)-1-methyl-2,3-dihydro-1H-inden-1-yl)methyl)methane sulfonamide], for which the EC50 in assay [1] lay in the range of 100 to 1000 nM; in assay [2], 10 to 100 nM.
Consider `COc1c(-c2ccc3cc(CNS(C)(=O)=O)sc3c2)cc(-n2ccc(=O)[nH]c2=O)cc1C(C)(C)C` [IB-L0-2.40], for which the figures for the EC50 in assay [1] and in assay [2] were > 1000 nM and 100 to 1000 nM, respectively.
As to `COc1c(-c2ccc3c(c2)CCC3C(C)(C)NS(C)(=O)=O)cc(-n2ccc(=O)[nH]c2=O)cc1C(C)(C)C` (centres unmarked) [IB-L0-2.29, N-(2-(5-(3-tert-butyl-5-(2,4-dioxo-3,4-dihydropyrimidin-1(2H)-yl)-2-methoxyphenyl)-2,3-dihydro-1H-inden-1-yl)propan-2-yl)methanesulfonamide], the EC50 lay in the range of 100 to 1000 nM in assay [1] and 10 to 100 nM in assay [2].
Regarding `COc1c(-c2ccc3c(c2)CC[C@@H]3CNS(C)(=O)=O)cc(-n2ccc(=O)[nH]c2=O)cc1C(C)(C)C` (single isomer, unassigned) [IB-L0-2.9], the EC50 in assay [1] and in assay [2] was < 10 nM throughout.
`COc1c(-c2ccc3c(CNS(C)(=O)=O)coc3c2)cc(-n2ccc(=O)[nH]c2=O)cc1C(C)(C)C` [IB-L0-2.18]: the values for the EC50 in assay [1] and in assay [2] were 100 to 1000 nM and 10 to 100 nM, respectively.
The like results for `COc1c(-c2ccc3c(c2)CCC3=O)cc(-n2ccc(=O)[nH]c2=O)cc1C(C)(C)C` [IB-L0-2.50, 1-(3-tert-butyl-4-methoxy-5-(1-oxo-2,3-dihydro-1H-inden-5-yl)phenyl)pyrimidine-2,4(1H,3H)-dione] were, in that order, 100 to 1000 nM and 100 to 1000 nM.
For `COc1c(-c2ccc3c(c2)CCC3(F)CNS(C)(=O)=O)cc(-n2ccc(=O)[nH]c2=O)cc1C(C)(C)C` (centres unmarked) [IB-L0-2.12, N-((5-(3-tert-butyl-5-(2,4-dioxo-3,4-dihydropyrimidin-1(2H)-yl)-2-methoxyphenyl)-1-fluoro-2,3-dihydro-1H-inden-1-yl)methyl)methanesulfonamide], the EC50 in assay [1] was 10 to 100 nM; in assay [2] it was < 10 nM.
With `COc1c(-c2ccsc2)cc(-n2ccc(=O)[nH]c2=O)cc1-c1ccc2c(c1)CC=C2CNS(C)(=O)=O` [IB-L0-2.62], the concentration for a half-maximal effect (EC50) lay within 100 to 1000 nM in assay [1] and 10 to 100 nM in assay [2].
On to `COc1c(-c2ccc3c(c2)CC[C@H]3CNS(C)(=O)=O)cc(-n2ccc(=O)[nH]c2=O)cc1C(C)(C)C` (single isomer, unassigned) [IB-L0-2.15], for which the EC50 lay in the range of 100 to 1000 nM in assay [1] and 10 to 100 nM in assay [2].
Take `COc1c(-c2ccc3c(c2)CC=C3CNS(C)(=O)=O)cc(-n2ccc(=O)[nH]c2=O)cc1C(C)(C)C` [IB-L0-2.13]: the EC50 in assay [1] was 10 to 100 nM; in assay [2], < 10 nM.

The values above are taken from US8501238B2, “Anti-infective agents and uses thereof” (priority 2007, dated 2013).
